In brackets after ≈: the same amount, converted by molar mass. Where two headings read alike, the source gives them in different places.
How the values were obtained:
[1] = cited from earlier work
[2] = Example 3: performance and water miscibility in presence of sodium percarbonate, weight of remaining material
Protocol: The experiment was carried out to check the performance and water miscibility of TAED in presence of sodium percarbonate. 1 gram of TAED with 2.5 gram of sodium percarbonate was added 1 litre water and stirred at 500 rpm using overhead stirrer. In Experiment set up the amount of water used for the study was 1 litre.

[3] = Example 4: performance and water miscibility in presence of sodium percarbonate, undissolved TAED at T=0 and T=6 months; type: physicochemical
Protocol: The TAED:Sodium percarbonate ratio used for the study was 1:2.5 w/w. […] This 100 mL solution was either used as it was or it was further diluted to with 900 mL water to make a 1 L sample.

## CC(=O)N(CCN(C(C)=O)C(C)=O)C(C)=O [TAED (Commercially available), Tetraacetylethylenediamine]
[1]; 20° C.
  solubility: 200 µg/mL (≈ 876 µM)
[1]
  solubility: around 200 mg/L
[2]; 100 ml water
  amount remained after 5 min: 800 mg
[2]; 250 ml water
  amount remained after 5 min: 750 mg
[2]; 500 ml water
  amount remained after 5 min: 690 mg
[3]; 1 g TAED, 1 L, 1 min, T = 6 months (40° C., 75% relative humidity)
  Undissolved TAED: 90 mg
[3]; 1 g TAED, 1 L, 4 min, T = 0
  Undissolved TAED: 60 mg
[3]; 1 g TAED, 1 L, 4 min, T = 6 months (40° C., 75% relative humidity)
  Undissolved TAED: 60 mg
[3]; 1 g TAED, 100 mL diluted to 1 L, 1 min, T = 0
  Undissolved TAED: 90 mg
[3]; 1 g TAED, 100 mL water, stirring 1 min, T = 6 months (40° C., 75% relative humidity)
  Undissolved TAED: 150 mg
[3]; 1 g TAED, 100 mL water, stirring 4 min, T = 0
  Undissolved TAED: 100 mg
[3]; 1 g TAED, 100 mL water, stirring 4 min, T = 6 months (40° C., 75% relative humidity)
  Undissolved TAED: 100 mg
[3]; 1 g TAED, sodium percarbonate 1:2.5 w/w, 100 mL water, stirring 1 min, T = 0
  Undissolved TAED: 150 mg
[3]; 3 gram TAED, 1 litre, stirring 1 min, T = 0
  Undissolved TAED: 1.8 gram
[3]; 3 gram TAED, 1 litre, stirring 1 min, T = 6 month
  Undissolved TAED: 1.8 gram
[3]; 3 gram TAED, 1 litre, stirring 4 min, T = 0
  Undissolved TAED: 1.2 gram
[3]; 3 gram TAED, 1 litre, stirring 4 min, T = 6 month
  Undissolved TAED: 1.2 gram
[3]; 3 gram TAED, 100 ml water, stirring 1 min, T = 0
  Undissolved TAED: 2 gram
[3]; 3 gram TAED, 100 ml water, stirring 1 min, T = 6 month
  Undissolved TAED: 2 gram
[3]; 3 gram TAED, 100 ml water, stirring 4 min, T = 0
  Undissolved TAED: 1.8 gram
[3]; 3 gram TAED, 100 ml water, stirring 4 min, T = 6 month
  Undissolved TAED: 1.8 gram

Reference: patent publication US12692461B2, “Composite form of tetraacetylenediamine” (ONE1STAR SOLUTIONS LIMITED, priority 2020, dated 2026)
